Laboratory results as given in patent US20220372014A1, “NEUROPROTECTIVE COMPOUNDS AND METHODS OF USE THEREOF” (The Johns Hopkins University, priority 2019, published 2022).
“Also recorded” adds a separate entry of the source.

Tests used:
EcoRV = EcoRV (Escherichia coli, UniProt P04390); assay: In vitro nuclease assay of EcoRV (pcDNA3 substrate); assay type: biochemical
Protocol: Nuclease assay. Purified PAAN/MIF protein (4 μM) was incubated with compounds (10 μM) in the nuclease buffer [10 mM Tris-C1 (pH 7.0) and 10 mM MgCl2] for 20 m on ice. Then samples were added with 1 μM of PAAN/MIF substrate (PS30 or RF) and incubated for 1 h at 37° C. The reaction was terminated with loading buffer containing 10 mM EDTA and separated on 15% TBE-urea polyacrylamide (PAGE) gel or 20% TBE PAGE gel. For other nucleases (EcoRI and EcoRV) assays, pcDNA3 (500 ng/reaction) was used as a substrate and 0.01 unit of Exonulcase III were incubated with small dsDNA (Sequence ID NO 4:5′-[…]-3′ and Sequence ID NO 5:5′-[…]-3′).

HT 22 cells = assay: TNF-α and z-VAD-induced necroptosis, Alamar blue; assay type: cell-based; conditions: 1 ng/ml TNF-α with 50 μM z-VAD
Protocol: Graphs represent mean±s.e.m. ***P<0.0005, two-way ANOVA followed by Tukey's post hoc test (n=3). A PARP inhibitor, ABT-888 is used for the positive control. FIGS. 12B and 12C show in vitro oxidoreductase and tautomerase activity of MIF/PAAN with compound 41, 56, 76, or 77. FIGS. 12D and 12E show Alamar blue cell viability assay from SH-SY5Y cells pre-incubated with compound 41, 56, 76, or 77 in response to 0.5 μM staurosporine (STS) or from HT 22 cells incubated with 1 ng/ml of TNF-α with 50 μM z-VAD. A pan caspase inhibitor, z-VAD or necrostatin (Nec-1) is used for the positive control and PARP inhibitor, ABT-888 is used for negative control. Bars represent mean±s.e.m. ***P<0.0005, two-way ANOVA followed by Tukey's post hoc test (n=3). […] Bars represent mean±s.e.m. **P<0.005, ***P<0.0005, two-way ANOVA followed by Tukey's post hoc test (n=3).
FIGS. 14A-14G show the characterization of compound 121. […] Bars represent means±s.e.m. ***P<0.0005, two-way ANOVA followed by Tukey's post hoc test (n=4). […] Bars represent mean±s.e.m. ***P<0.0005, two-way ANOVA followed by Tukey's post hoc test (n=4). […] Bars represent means±s.e.m. **P<0.005, ***P<0.0005, one-way ANOVA followed by Tukey's post hoc test (n=3). […] Bar represent mean±s.e.m. ***P<0.0005, one-way ANOVA followed by Tukey's post hoc test (n=3). […] Quantification of inhibition of PARP-1 activity by compound 56, compound 121 and ABT-888 is shown. Graphs represent mean±s.e.m. ***P<0.0005, two-way ANOVA followed by Tukey's post hoc test (n=3). FIGS. 14F and 14G show Alamar blue cell viability assay from SH-SY5Y cells pre-incubated with either compound 56 or 121 in response to (14F) 0.5 μM staurosporine (STS) or (14G) from HT 22 cells incubated with 1 ng/ml of TNF-α with 50 μM z-VAD. Bars represent mean±s.e.m. ***P<0.0005, two-way ANOVA followed by Tukey's post hoc test (n=5).
Cell death and viability assessment. Primary cultured cortical neurons were treated with 5 μg/ml of α-syn PFF for 14 days and cell death was determined by staining of all nuclei with 7 μM Hoechst 33342 and dead cell nuclei with 2 μM propidium iodide (PI) (Invitrogen). The numbers of total and dead cells were counted with the Axiovision 4.6 software (Carl Zeiss). Cell viability was determined by fluorescence at an excitation wavelength 570 nm and an emission wavelength 585 nm using Alamar Blue (Invitrogen).

[1] = Measurement of compounds in brain after oral gavage (HPLC-MS); assay type: in vivo, C57BL/6 mice; conditions: oral gavage 10 mg/kg
Protocol: The concentrations of compounds in brain tissue were measured by LC/MS. […] Bars represent means±s.e.m. ***P<0.0005, two-way ANOVA followed by Tukey's post hoc test (n=3). […] Quantification of noncleaved substrate. Bars represent mean±s.e.m. ***P<0.0005, two-way ANOVA followed by Tukey's post hoc test (n=4). […] Intensity of noncleaved genomic DNA is shown in the graph. Bars represent mean±s.e.m. ***P<0.0005, two-way ANOVA followed by Tukey's post hoc test (n=4).
Measurement of compound 121 in brain. Compound 56, compound 77, and compound 121 were resuspended in a vehicle solution and were administered at 10 mg/kg by oral gavage. After 2 h, mice were perfused with PBS and whole brain was isolated, weighed and grounded with a pestle to a very fine powder with liquid nitrogen. Then, 2-folds of acetonitrile were added to brain tissue sample and the mixture was centrifuged at 14,000 rpm, 4° C. for 10 m. The supernatant was used for analysis. The concentration of compounds in brain tissue were measured using HPLC-MS on a C-18 reverse phase HPLC column. Separations were achieved using a linear gradient of buffer B from 40% to 95% in A (A=0.1% formic acid in H20; B=0.1% formic acid in CH3CN) at a flow rate of 1 ml/min. Intracerebroventricular (ICV) injected brain samples at 0.5, 1, 2, 4 or 8 μM concentration were used for the standard curve.

Sequence of EcoRV (P04390 whole entry): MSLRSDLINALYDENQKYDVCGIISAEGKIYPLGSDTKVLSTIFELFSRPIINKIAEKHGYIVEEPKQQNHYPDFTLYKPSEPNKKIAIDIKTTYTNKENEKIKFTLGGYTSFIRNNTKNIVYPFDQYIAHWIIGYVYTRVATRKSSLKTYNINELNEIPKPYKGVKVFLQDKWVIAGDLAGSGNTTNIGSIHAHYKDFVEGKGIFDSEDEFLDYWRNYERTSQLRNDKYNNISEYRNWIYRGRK

Compound | nuclease activity of EcoRV (EcoRV) | TNFα and Z-VAD-induced necroptosis (HT 22 cells) | concentration at 2 h ([1]; C57BL/6, mouse, brain, read-out: achievable concentration in brain) [nM] | ability to cross the blood brain barrier (BBB) ([1]; 2 h) | levels detected in the brain relative to compound 56 ([1]; 2 h) [fold]
COc1ccc(CC[C@H]2OC(=O)[C@@H]3CCCCN3C(=O)C(=O)C(C)(C)COC(=O)C=CCCN(C)C(=O)CNC(=O)[C@H](C(C)C)N(C)C(=O)[C@@H](Cc3ccccc3)NC(=O)[C@H](CC(C)C)N(C)C(=O)CCC(=O)Nc3cccc2c3)cc1OC [compound 76] | do not inhibit | not prevented |  |  | 
COc1ccc(CC[C@H]2OC(=O)[C@@H]3CCCCN3C(=O)C(=O)C(C)(C)COC(=O)C=CCCN(C)C(=O)[C@@H]3CCCN3C(=O)[C@H](COC(C)(C)C)N(C)C(=O)C(c3ccccc3)NC(=O)[C@H](C)N(C)C(=O)COc3cccc2c3)cc1OC (stereo partly shown) [compound 56] | do not inhibit | not prevented; also recorded: failed to inhibit | < 500 | crossed the BBB | 
COc1ccc(CC[C@H]2OC(=O)[C@@H]3CCCCN3C(=O)C(=O)C(C)(C)COC(=O)C=CCCN(C)C(=O)[C@@H]3CCCN3C(=O)[C@H](COC(C)(C)C)N(C)C(=O)C(c3ccccc3)NC(=O)CN(C)C(=O)COc3cccc2c3)cc1OC (stereo partly shown) [compound 41] | do not inhibit | not prevented |  |  | 
COc1ccc(CC[C@H]2OC(=O)[C@@H]3CCCCN3C(=O)C(=O)C(C)(C)COC(=O)C=CCCN(C)C(=O)[C@@H]3CCCN3C(=O)[C@H](COC(C)(C)C)N(C)C(=O)C(c3ccccc3)NC(=O)[C@H](C)N(C)C(=O)COc3cc(F)cc2c3)cc1OC (mixture of isomers) [compound 121] |  | failed to inhibit |  |  | ~3
COc1ccc(CC[C@H]2OC(=O)[C@@H]3CCCCN3C(=O)C(=O)C(C)(C)COC(=O)C=CCCN(C)C(=O)[C@H](C)NC(=O)[C@H](C(C)C)N(C)C(=O)[C@@H](Cc3ccccc3)NC(=O)[C@H](CC(C)C)N(C)C(=O)CCC(=O)Nc3cccc2c3)cc1OC [compound 77] | do not inhibit | not prevented |  | only compound 56 crossed the BBB | 
